# Laboratory results published in US20090291104A1 (Florida Atlantic University, priority 2005, published 2009).
# Bridge positions count the residues as written; N and C are the ends. Peptide text beside a SMILES is read from it.
# Key:
# Kv1.3 [1] = molecular target: T1, Kv1.3 (Homo sapiens, UniProt P22001)
# [2] = test system: K+ channels in PC12 cells
# Kv1.3 [3] = molecular target: T1, Kv1.3; assay: cell-based
# [4] = molecular target: Kv1.3 potassium channel (transiently transfected into HEK293 cells)
# [5] = molecular target: Kv1.3 potassium channel (transiently transfected into HEK293 cells); assay: cell-based or functional assay
# T1 sequence (P22001 whole entry): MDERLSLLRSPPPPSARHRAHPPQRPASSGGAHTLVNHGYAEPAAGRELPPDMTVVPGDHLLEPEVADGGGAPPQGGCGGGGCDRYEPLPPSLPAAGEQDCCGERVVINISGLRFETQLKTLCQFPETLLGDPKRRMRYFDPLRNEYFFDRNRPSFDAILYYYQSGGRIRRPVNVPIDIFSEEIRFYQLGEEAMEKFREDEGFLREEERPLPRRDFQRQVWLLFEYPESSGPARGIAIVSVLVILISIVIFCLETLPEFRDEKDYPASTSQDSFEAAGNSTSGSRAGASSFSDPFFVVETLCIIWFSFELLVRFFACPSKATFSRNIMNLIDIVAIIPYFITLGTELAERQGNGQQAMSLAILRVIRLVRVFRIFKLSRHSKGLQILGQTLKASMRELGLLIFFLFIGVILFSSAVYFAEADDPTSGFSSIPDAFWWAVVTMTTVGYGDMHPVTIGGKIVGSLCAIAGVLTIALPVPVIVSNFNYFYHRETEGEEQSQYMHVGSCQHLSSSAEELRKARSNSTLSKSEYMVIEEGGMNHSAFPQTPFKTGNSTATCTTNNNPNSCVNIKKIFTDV
Molecule,V50 of steady-state activation curve (Boltzmann fit) (Kv1.3 [1]),V50 of steady-state current-voltage relationship (Kv1.3 [1]) [mV],V50 of steady-state current-voltage relationship after washing the toxin (Kv1.3 [1]) [mV],reduction of Kv1.3 currents (Kv1.3 [1]),reversibility of block (Kv1.3 [1]),voltage dependence of reduction in K+ current (Kv1.3 [1]),block of K+ channels [2],Kd (Kv1.3 [3]) [µM],Kd [4] [µM],"reduction of Kv1.3 K+ currents (whole-cell voltage clamp, HEK293) [5] [%]"
"CC[C@H](C)[C@@H]1NC(=O)[C@@H](NC(=O)[C@H](CCCNC(=N)N)NC(=O)CNC(=O)[C@H](CC(C)C)NC(=O)CNC(=O)CN)CSSC[C@@H](C(=O)N[C@@H](Cc2ccc(O)cc2)C(=O)O)NC(=O)[C@H](CCSC)NC(=O)[C@H]([C@@H](C)O)NC(=O)[C@H](CCCCN)NC(=O)[C@@H]2CSSC[C@H](NC(=O)[C@H](CC(N)=O)NC(=O)[C@H](Cc3ccc(O)cc3)NC1=O)C(=O)N[C@@H](CCSC)C(=O)N[C@@H](CC(N)=O)C(=O)N[C@@H](CO)C(=O)NCC(=O)NCC(=O)NCC(=O)N[C@@H](CC(C)C)C(=O)N[C@@H](CO)C(=O)N[C@@H](Cc1ccccc1)C(=O)N[C@@H]([C@@H](C)CC)C(=O)N[C@@H](CCC(N)=O)C(=O)N2 [vil14a] (H-GGLGRCIYNCMNSGGGLSFIQCKTMCY-OH; disulfide 6-26, 10-22)",+9 mV,19,−4.4,≈ 39%,reversible,voltage dependent,blocks K^+ channels,15.6,,
vil14a conotoxin (framework 14 conotoxin from Conus villepinii) (peptide),,,,,,,,,15.6,39
